{"source": "patent US20080014186A1", "about": "“Hla-A24 or Hla-A2 Binding Peptides of Parathyroid Hormone-Related Protein” (GREEN PEPTIDE CO., LTD., priority 2004, published 2008)", "key": {"[1]": {"tested_on": "PBMCs of HLA-A2^+ healthy donors and prostate cancer patients", "experiment": "Assay for peptide-specific CTLs in PBMCs (IFN-γ ELISA, peptide-pulsed T2 cells)", "format": "cell-based, human", "details": "for INF-γ production: T2 cells"}, "[2]": {"tested_on": "IgG in plasma of HLA-A2^+ healthy donors and prostate cancer patients", "experiment": "Peptide-specific IgG in plasma by ELISA (HLA-A2-binding PTHrP peptides)", "parameters": "species or system human", "details": "for IgG reactive to the peptide in plasma (difference of OD): 1:100-diluted plasma", "method": "Peptide-specific IgG levels in the plasma were measured by ELISA, as previously reported. In brief, peptide (20 μg/well)-immobilized plates were blocked with Block Ace (Yukijirushi, Tokyo, Japan) and washed with 0.05% Tween20-PBS, after which 100 μl/well of plasma sample diluted with 0.05% Tween20-Block Ace was added to the plate. After 2 hours incubation at 37° C., the plates were washed and further incubated for 2 hours with a 1:1000-diluted rabbit anti-human IgG (γ-chain-specific) (DAKO, Glostrup, Denmark). The plates were washed, and then 100 μl of 1:100-diluted goat anti-rabbit IgG-conjugated horseradish peroxidase (EnVision, DAKO) was added to each well, and the plates were then incubated at room temperature for 40 min. After the plates were washed once, 100 μl/well of tetramethyl benzidine substrate solution (KPL, Guildford, UK) was added, and the reaction was stopped by the addition of 1 M phosphoric acid. The values are shown as optical density (OD) units/ml, and responses to the HIV peptide were subtracted. IgG reactive to a corresponding PTHrP peptide was judged to be positive when the difference of the OD in 1:100-diluted plasma exceeded 0.05. The results that IgG reactive to either the PTHrP102-111 or the […] peptide was detected in 8 of 10 healthy donors and in 7 of 10 prostate cancers are shown in Table 2 hereinafter.\nIn a similar way to Example 3, it was examined whether IgGs reactive to peptides of PTHrP 42-51 and PTHrP 59-67 could be detected in the plasma of 10 healthy donors and 10 cancer patients. The cut-off value at 1:100-diluted plasma was ODO.054."}, "[3]": {"details": "HLA-A2^+ prostate cancer patients"}}, "data": [{"sequence": "TSTTSLELD [PTHrP 165-173, previously reported PTHrP peptide generating CTLs from HLA-A*0201 healthy donors [17], reference compound]", "values": [{"measurement": "INF-γ production", "setting": "[1]; HLA-A2^+ healthy donor #1 (A0201)", "result": 0, "unit": "pg/mL"}, {"measurement": "INF-γ production", "setting": "[1]; HLA-A2^+ healthy donor #2 (A0201)", "result": 222, "unit": "pg/mL"}, {"measurement": "INF-γ production", "setting": "[1]; HLA-A2^+ healthy donor #3 (A0201)", "result": 0, "unit": "pg/mL"}, {"measurement": "INF-γ production", "setting": "[1]; HLA-A2^+ healthy donor #4 (A0201)", "result": 294, "unit": "pg/mL"}, {"measurement": "INF-γ production", "setting": "[1]; HLA-A2^+ healthy donor #5 (A0206)", "result": 0, "unit": "pg/mL"}, {"measurement": "INF-γ production", "setting": "[1]; HLA-A2^+ healthy donor #6 (A0206)", "result": 0, "unit": "pg/mL"}, {"measurement": "INF-γ production", "setting": "[1]; HLA-A2^+ healthy donor #7 (A0206)", "result": 27, "unit": "pg/mL"}, {"measurement": "INF-γ production", "setting": "[1]; HLA-A2^+ healthy donor #8 (A0206)", "result": 325, "unit": "pg/mL"}, {"measurement": "INF-γ production", "setting": "[1]; HLA-A2^+ healthy donor #9 (A0206)", "result": 395, "unit": "pg/mL"}, {"measurement": "INF-γ production", "setting": "[1]; HLA-A2^+ healthy donor #10 (A0207)", "result": 46, "unit": "pg/mL"}, {"measurement": "induced peptide-specific CTLs, number of donors", "setting": "[1]; HLA-A2^+ healthy donors", "result": "4 of 10"}, {"measurement": "Total (donors with significant peptide-specific IFN-γ production / donors tested)", "setting": "[1]; HLA-A2^+ healthy donors, p < 0.05", "result": "4/10"}, {"measurement": "INF-γ production", "setting": "[1]; HLA-A2^+ prostate cancer patient #1 (A0206)", "result": 202, "unit": "pg/mL"}, {"measurement": "INF-γ production", "setting": "[1]; HLA-A2^+ prostate cancer patient #2 (A0210)", "result": 26, "unit": "pg/mL"}, {"measurement": "INF-γ production", "setting": "[1]; HLA-A2^+ prostate cancer patient #3 (A0210)", "result": 60, "unit": "pg/mL"}, {"measurement": "INF-γ production", "setting": "[1]; HLA-A2^+ prostate cancer patient #4 (A0206)", "result": 151, "unit": "pg/mL"}, {"measurement": "INF-γ production", "setting": "[1]; HLA-A2^+ prostate cancer patient #5 (A0206)", "result": 103, "unit": "pg/mL"}, {"measurement": "INF-γ production", "setting": "[1]; HLA-A2^+ prostate cancer patient #6 (A0207)", "result": 0, "unit": "pg/mL"}, {"measurement": "INF-γ production", "setting": "[1]; HLA-A2^+ prostate cancer patient #7 (A0206)", "result": 0, "unit": "pg/mL"}, {"measurement": "INF-γ production", "setting": "[1]; HLA-A2^+ prostate cancer patient #8 (A0206)", "result": 80, "unit": "pg/mL"}, {"measurement": "INF-γ production", "setting": "[1]; HLA-A2^+ prostate cancer patient #9 (A0201)", "result": 0, "unit": "pg/mL"}, {"measurement": "INF-γ production", "setting": "[1]; HLA-A2^+ prostate cancer patient #10 (A0201)", "result": 24, "unit": "pg/mL"}, {"measurement": "induced peptide-specific CTLs (peptide-specific IFN-γ production), number of patients", "setting": "[1]; [3]", "result": "3 of 10"}, {"measurement": "Total (patients with significant peptide-specific IFN-γ production / patients tested)", "setting": "[1]; HLA-A2^+ prostate cancer patients, p < 0.05", "result": "3/10"}, {"measurement": "IgG reactive to the peptide in plasma (difference of OD)", "setting": "[2]; HLA-A2^+ healthy donor #1", "result": "— (IgG reactive to a corresponding peptide was judged to be positive when a difference of OD in a 1:100-diluted plasma was more than 0.054.)"}, {"measurement": "IgG reactive to the peptide in plasma (difference of OD)", "setting": "[2]; HLA-A2^+ healthy donor #2", "result": "— (IgG reactive to a corresponding peptide was judged to be positive when a difference of OD in a 1:100-diluted plasma was more than 0.054.)"}, {"measurement": "IgG reactive to the peptide in plasma (difference of OD)", "setting": "[2]; HLA-A2^+ healthy donor #3", "result": "— (IgG reactive to a corresponding peptide was judged to be positive when a difference of OD in a 1:100-diluted plasma was more than 0.054.)"}, {"measurement": "IgG reactive to the peptide in plasma (difference of OD)", "setting": "[2]; HLA-A2^+ healthy donor #4", "result": "— (IgG reactive to a corresponding peptide was judged to be positive when a difference of OD in a 1:100-diluted plasma was more than 0.054.)"}, {"measurement": "IgG reactive to the peptide in plasma (difference of OD)", "setting": "[2]; HLA-A2^+ healthy donor #5", "result": "— (IgG reactive to a corresponding peptide was judged to be positive when a difference of OD in a 1:100-diluted plasma was more than 0.054.)"}, {"measurement": "IgG reactive to the peptide in plasma (difference of OD)", "setting": "[2]; HLA-A2^+ healthy donor #6", "result": 0.0865, "unit": "OD"}, {"measurement": "IgG reactive to the peptide in plasma (difference of OD)", "setting": "[2]; HLA-A2^+ healthy donor #7", "result": 0.089, "unit": "OD"}, {"measurement": "IgG reactive to the peptide in plasma (difference of OD)", "setting": "[2]; HLA-A2^+ healthy donor #8", "result": 0.193, "unit": "OD"}, {"measurement": "IgG reactive to the peptide in plasma (difference of OD)", "setting": "[2]; HLA-A2^+ healthy donor #9", "result": 0.0925, "unit": "OD"}, {"measurement": "IgG reactive to the peptide in plasma (difference of OD)", "setting": "[2]; HLA-A2^+ healthy donor #10", "result": 0.099, "unit": "OD"}, {"measurement": "Total (IgG-positive donors / donors tested)", "setting": "[2]; HLA-A2^+ healthy donors", "result": "5/10"}, {"measurement": "IgG reactive to the peptide in plasma (difference of OD)", "setting": "[2]; HLA-A2^+ prostate cancer patient #1", "result": "— (IgG reactive to a corresponding peptide was judged to be positive when a difference of OD in a 1:100-diluted plasma was more than 0.054.)"}, {"measurement": "IgG reactive to the peptide in plasma (difference of OD)", "setting": "[2]; HLA-A2^+ prostate cancer patient #2", "result": "— (IgG reactive to a corresponding peptide was judged to be positive when a difference of OD in a 1:100-diluted plasma was more than 0.054.)"}, {"measurement": "IgG reactive to the peptide in plasma (difference of OD)", "setting": "[2]; HLA-A2^+ prostate cancer patient #3", "result": 0.078, "unit": "OD"}, {"measurement": "IgG reactive to the peptide in plasma (difference of OD)", "setting": "[2]; HLA-A2^+ prostate cancer patient #4", "result": "— (IgG reactive to a corresponding peptide was judged to be positive when a difference of OD in a 1:100-diluted plasma was more than 0.054.)"}, {"measurement": "IgG reactive to the peptide in plasma (difference of OD)", "setting": "[2]; HLA-A2^+ prostate cancer patient #5", "result": "— (IgG reactive to a corresponding peptide was judged to be positive when a difference of OD in a 1:100-diluted plasma was more than 0.054.)"}, {"measurement": "IgG reactive to the peptide in plasma (difference of OD)", "setting": "[2]; HLA-A2^+ prostate cancer patient #6", "result": "— (IgG reactive to a corresponding peptide was judged to be positive when a difference of OD in a 1:100-diluted plasma was more than 0.054.)"}, {"measurement": "IgG reactive to the peptide in plasma (difference of OD)", "setting": "[2]; HLA-A2^+ prostate cancer patient #7", "result": "— (IgG reactive to a corresponding peptide was judged to be positive when a difference of OD in a 1:100-diluted plasma was more than 0.054.)"}, {"measurement": "IgG reactive to the peptide in plasma (difference of OD)", "setting": "[2]; HLA-A2^+ prostate cancer patient #8", "result": "— (IgG reactive to a corresponding peptide was judged to be positive when a difference of OD in a 1:100-diluted plasma was more than 0.054.)"}, {"measurement": "IgG reactive to the peptide in plasma (difference of OD)", "setting": "[2]; HLA-A2^+ prostate cancer patient #9", "result": "— (IgG reactive to a corresponding peptide was judged to be positive when a difference of OD in a 1:100-diluted plasma was more than 0.054.)"}, {"measurement": "IgG reactive to the peptide in plasma (difference of OD)", "setting": "[2]; HLA-A2^+ prostate cancer patient #10", "result": 0.1515, "unit": "OD"}, {"measurement": "Total (IgG-positive patients / patients tested)", "setting": "[2]; [3]", "result": "2/10"}]}]}
